The nature of data set [1]: refractive index (Na D-line) (dimensionless). The settings on record: 293.15 K; 101.33 kPa; Liquid; Standard Abbe refractometry.
The conditions of data set [2]: 101.33 kPa, Liquid, Vibrating tube method.

± gives the expanded uncertainty stated by the source.

`CCC(C)O` (stereo not given) [butan-2-ol]: the refractive index (in general, the speed of light in vacuum divided by its phase velocity in the sample) in data set [1] came to 1.3943 ± 0.0008. The mass density (as a rule, the mass of a sample divided by its volume) is on record as 806.75 ± 0.24 kg/m3 in data set [2] (293.15 K); 802.62 ± 0.24 kg/m3 in data set [2] (298.15 K); 798.43 ± 0.24 kg/m3 in data set [2] (303.15 K); 789.75 ± 0.24 kg/m3 in data set [2] (313.15 K); 780.65 ± 0.24 kg/m3 in data set [2] (323.15 K); 771.1 ± 0.24 kg/m3 in data set [2] (333.15 K).
As to `CC(C)CO` [2-methyl-1-propanol], the refractive index in data set [1] stood at 1.3929 ± 0.0008. The mass density in data set [2] (293.15 K) came out at 801.99 ± 0.24 kg/m3; in data set [2] (298.15 K), 798.13 ± 0.24 kg/m3; in data set [2] (303.15 K) it was 794.24 ± 0.24 kg/m3; in data set [2] (313.15 K), 786.28 ± 0.24 kg/m3; in data set [2] (323.15 K) it was 778.09 ± 0.24 kg/m3; in data set [2] (333.15 K), 769.6 ± 0.24 kg/m3.
For the molecule `CC(=O)O` [acetic acid], the refractive index in data set [1] is 1.3687 ± 0.0008. Also, the mass density in data set [2] (293.15 K) stood at 1049.31 ± 0.08 kg/m3; in data set [2] (298.15 K), 1043.65 ± 0.08 kg/m3; in data set [2] (303.15 K) it was 1037.99 ± 0.07 kg/m3; in data set [2] (313.15 K), 1026.68 ± 0.07 kg/m3; in data set [2] (323.15 K), 1015.36 ± 0.07 kg/m3; in data set [2] (333.15 K), 1004.01 ± 0.07 kg/m3.
Take `CCC(C)(C)O` [2-methylbutan-2-ol]: in data set [1], the refractive index amounted to 1.4016 ± 0.0008. Also, the mass density in data set [2] (293.15 K) is given as 808.98 ± 0.14 kg/m3; in data set [2] (298.15 K), 804.39 ± 0.15 kg/m3; in data set [2] (303.15 K), 799.75 ± 0.15 kg/m3; in data set [2] (313.15 K), 790.27 ± 0.15 kg/m3; in data set [2] (323.15 K), 780.46 ± 0.16 kg/m3; in data set [2] (333.15 K), 770.27 ± 0.16 kg/m3.
Turning to `CCC(=O)O` [propanoic acid], the refractive index in data set [1] is 1.3835 ± 0.0008. The mass density in data set [2] (293.15 K) is 993.56 ± 0.09 kg/m3; in data set [2] (298.15 K), 988.15 ± 0.1 kg/m3; in data set [2] (303.15 K), 982.75 ± 0.1 kg/m3; in data set [2] (313.15 K) it was 971.96 ± 0.1 kg/m3; in data set [2] (323.15 K), 961.16 ± 0.11 kg/m3; in data set [2] (333.15 K), 950.35 ± 0.11 kg/m3.

These data come from the NIST ThermoML archive (doi:10.1021/je201102x).
